Measurements as given in patent US20120004245A1, “COMPOUNDS FOR THE TREATMENT OF POSTERIOR SEGMENT DISORDERS AND DISEASES” (ALCON RESEARCH, LTD., priority 2010, published 2012).
Read-outs that look alike come from different tables or passages of the source.

Columns and labels:
[1] = system: bovine retinal endothelial cells (BRECs); assay: VEGF-induced proliferation of bovine retinal endothelial cells (BrdU ELISA); assay type: cell-based; conditions: for EC50: Bos taurus, Endothelial cell, read-out: VEGF ind BREC prolif EC50
Experimental: METHODS. […] After another 22-24 hours the cells are treated with or without 50 ng/ml VEGF media and the test compounds in the 1% FBS media. After 30 hours BrdU is then added for the final 16 hours of the incubation. All cells are then fixed and assayed with a colorimetric BrdU ELISA kit.

[2] = system: VEGF-induced retinal vascular permeability; assay: VEGF-induced retinal vascular permeability in the rat, intravitreal delivery; assay type: in vivo; conditions: for Efficacy (0.1%) / Efficacy (1%): inhibition of VEGF-induced RVP vs vehicle-injected controls, *P<0.05; for Efficacy (0.1%): single ivt injection of 0.1% suspension; for Efficacy (1%): single ivt injection of 1% suspension; for ED50 (nmole) / ED50 (μg) / Potency: rat VEGF-induced RVP; for ED50 (nmole) / ED50 (μg): dose-response, single ivt injection; for Potency: relative to reference standard, * = equipotent, 95% CL encompass 1.0
Experimental: METHODS: Adult Sprague-Dawley rats were anesthetized with intramuscular ketamine/xylazine and their pupils dilated with topical cycloplegics. […] Ten μl of each compound was intravitreally injected in each treatment eye (n=5˜6 animals per group). Three days following first intravitreal injection, all animals received an intravitreal injection of 10 μl 500 ng hr VEGF in both eyes. Twenty-four hours post-injection of VEGF, intravenous infusion of 3% Evans blue dye was performed in all animals, where 50 mg/kg of Evans blue dye was injected via the lateral tail vein during general anesthesia. After the dye had circulated for 90 minutes, the rats were euthanized. The rats were then systemically perfused with balanced salt solution, and then both eyes of each rat were immediately enucleated and the retinas harvested using a surgical microscope. After measurement of the retinal wet weight, the Evans blue dye was extracted by placing the retina in a 0.2 ml formamide (Sigma) and then the homogenized and ultracentrifuged. Blood samples were centrifuged and the plasma diluted 100 fold in formamide. For both retina and plasma samples, 60 μl of supernatant was used to measure the Evans blue dye absorbance (ABS) with at 620/740 nm. The blood-retinal barrier breakdown and subsequent retinal vascular permeability as measured by dye absorbance were calculated as means+/−s.e.m. of net ABS/wet weight/plasma ABS. One way ANOVA was used to determine an overall difference between treatment means. And a test or Man-Whitney rank sum test was performed for a pair-wise comparison between treatment groups, where P<0.05 was considered significant.

[3] = system: preretinal neovascularization; assay: Rat oxygen-induced retinopathy (OIR) model, prevention; assay type: in vivo; conditions: for ED50 (nmole) / ED50 (μg) / Potency: Rat OIR Prevention; for ED50 (nmole) / ED50 (μg): dose-response, single ivt injection; for Potency: relative to reference RTKi (=1); for Efficacy (0.1%) Median-value / Efficacy (1%) Median-value: rat OIR prevention, vs vehicle, *P<0.05; for Efficacy (0.1%) Median-value: single ivt injection of 0.1% suspension; for Efficacy (1%) Median-value: single ivt injection of 1% suspension
Excerpt: (§1) METHODS: Pregnant Sprague-Dawley rats were received at 14 days gestation and subsequently gave birth on Day 22±1 of gestation. Immediately following parturition, pups were pooled and randomized into separate litters (n=17 pups/litter), placed into separate shoebox cages inside oxygen delivery chamber, and subjected to an oxygen-exposure profile from Day 0-14 postpartum. Litters were then placed into room air from Day 14/0 through Day 14/6 (days 14-20 postpartum). For prevention studies, each pup was randomly assigned into various treatment groups on Day 14/0. For those randomized into an injection treatment group: one eye received a 5 μl intravitreal injection of between 0.01%-1% of a RTKi and the contralateral eye received a 5 μl intravitreal injection of vehicle. At Day 14/6 (20 days postpartum), all animals were euthanized. For regression studies, each pup was randomly assigned as an oxygen-exposed control or into various treatment groups on […]. For those randomized into an injection treatment group: one eye received a 5 μl intravitreal injection of between 0.01%-1% RTKi and the contralateral eye received a 5 μl intravitreal injection of vehicle. At Day 14/7 (21 days postpartum), all animals were euthanized. Immediately following euthanasia, retinas from all rat pups were harvested, fixed in 10% neutral buffered formalin for 24 hours, subjected to ADPase staining, and fixed onto slides as whole mounts. Digital images were acquired from each retinal flat mount that was adequately prepared. Computerized image analysis was used to obtain a NV clockhour score from each readable sample. Each clockhour out of 12 total per retina was assessed for the presence or absence of preretinal NV. Statistical comparisons using median scores for NV clockhours from each treatment group were utilized in nonparametric analyses. Each noninjected pup represented one NV score by taking the average value of both eyes and was used in comparisons against each dosage group. Because the pups were randomly assigned and no difference was observed between oxygen-exposed control pups from all litters, the NV scores were combined for all treatment groups. P≦0.05 was considered statistically significant.

[4] = system: preretinal neovascularization; assay: Rat oxygen-induced retinopathy (OIR) model, regression; assay type: in vivo; conditions: for ED50 (nmole) / ED50 (μg): dose-response, single ivt injection; for Potency: relative to reference RTKi (=1)
Excerpt: as §1

[5] = system: laser-induced choroidal neovascularization (CNV); assay: Mouse laser-induced CNV, prevention; conditions: single ivt injection
Excerpt: METHODS. CNV was generated by laser-induced rupture of Bruch's membrane. […] A hand-held cover slip was applied to the cornea and used as a contact lens to aid visualization of the fundus. Three to four retinal burns were placed in randomly assigned eye (right or left eye for each mouse) using the Alcon 532 nm EyeLite laser with a slit lamp delivery system. The laser burns were used to generate a rupture in Bruch's membrane, which was indicated ophthalmoscopically by the formation of a bubble under the retina. Only mice with laser burns that produced three bubbles per eye were included in the study. Burns were typically placed at the 3, 6, 9 or 12 o'clock positions in the posterior pole of the retina, avoiding the branch retinal arteries and veins.
Each mouse was randomly assigned into one of the following treatment groups: noninjected controls, sham-injected controls, vehicle-injected mice, or one of three Compound-injected groups. Control mice received laser photocoagulation in both eyes, where one eye received a sham injection, i.e. a pars plana needle puncture. For intravitreal-injected animals, one laser-treated eye received a 2 or 5 μl intravitreal injection of 0.1%-3% of a RTKi or vehicle. For prevention studies, the intravitreal injection was performed immediately after laser photocoagulation. […] At 14 days post-laser, all mice were anesthetized and systemically perfused with fluorescein-labeled dextran. Eyes were then harvested and prepared as choroidal flat mounts with the RPE side oriented towards the observer. All choroidal flat mounts were examined using a fluorescent microscope. Digital images of the CNV were captured, where the CNV was identified as areas of hyperfluorescence within the pigmented background. Computerized image analysis was used to delineate and measure the two dimensional area of the hyperfluorescent CNV per lesion (μm^2) for the outcome measurement. The median CNV area/burn per mouse per treatment group or the mean CNV area/burn per treatment group was used for statistical analysis depending on the normality of data distribution; P<0.05 was considered significant.

[6] = 50 ng/ml VEGF, BrdU incorporation
[7] = 20 μg/1.0%, * significant vs vehicle-injected controls

Row | Compound | Relative Potency vs Reference ([1]; BREC proliferation, relative to reference standard RTKi) | EC50 [1, 6] [nM] | Efficacy (0.1%) [2] | Efficacy (1%) [2] | ED50 (nmole) [2] | ED50 (μg) [2] [µg] | Potency [2] | ED50 (nmole) [3] [nmol] | ED50 (μg) [3] [µg] | Potency [3] | Efficacy (0.1%) Median-value [3] | Efficacy (1%) Median-value [3] | ED50 (nmole) [4] [nmol] | ED50 (μg) [4] [µg] | Potency [4] | Prevention Efficacy ([5]; 2 μg/0.1%) | Prevention Efficacy [5, 7] | EC50 [1] [nM] | Prevention Efficacy ([5]; 6 μg/0.3%) [μg/0.3% = 13.9%]
1 | Cc1cccc(NC(=O)Nc2ccc(-c3csc4ncnc(N)c34)cc2)c1 [Compound II, 1-[4-(4-Amino-thieno[2,3-d]pyrimidin-5-yl)-phenyl]-3-m-tolyl-urea] | 14.5 ± 15.1 | 0.11 | 85.2%* | 85.7%* | 7.62 nmol | 2.86 | 0.392* | 12.17 | 4.57 | 6.23 | 32.2% | 100%* | 24.31 | 9.13 | 2.3 | 2 μg/0.1% = 40.6% | 20 μg/1.0% = 69.0%* |  | 
2 | Cc1cc(O)cc(NC(=O)Nc2ccc(-c3cccc4[nH]nc(N)c34)cc2)c1 [III, 1-[4-(3-Amino-1H-indazol-4-yl)-phenyl]-3-(3-hydroxy-5-methyl-phenyl)-urea] |  | 0.45 ± 0.05 | −96.7% | −316.9% | >80.3 nmol | >30 | 0.028 | 15.85 | 5.92 | 4.03 | 1.5% | 100%* |  |  |  |  |  |  | 
3 | Cc1cccc(NC(=O)Nc2ccc(-c3csc4c(-c5cccnc5)cnc(N)c34)cc2)c1 [VII, 1-[4-(4-Amino-7-pyridin-3-yl-thieno[3,2-c]pyridin-3-yl)-phenyl]-3-m-tolyl-urea] |  | 0.11 ± 0.086 | 84%* | 73.5%* | 5.47 nmol | 2.47 | 0.621* | 15.74 | 7.11 | 3.23 | 9.6% | 100* % | 20.86 | 9.42 | 2.49 |  |  |  | 
4 | Cc1cccc(NC(=O)Nc2ccc(-c3cncc4[nH]nc(N)c34)cc2)c1 [Compound I, 1-[4-(3-Amino-1H-pyrazolo[3,4-c]pyridin-4-yl)-phenyl]-3-m-tolyl-urea] |  |  | 65.4%* | 88.9%* | 4.04^ nmole | 1.447 | 1.2* | 13.44 | 4.82 | 5.75 | 100%* | 100%* | 25.47 | 9.13 | 2.26 | −53.8% | 37.6% | 0.16 | 
5 | COCCOc1ccc(-c2ccc(NC(=O)Nc3cccc(C)c3)cc2)c2c(N)n[nH]c12 [IV, 1-{4-[3-Amino-7-(2-methoxy-ethoxy)-1H-indazol-4-yl]-phenyl}-3-m-tolyl-urea] |  | 0.1 ± 0.01 | 73.9%* | −148.2% |  |  |  | 13.23 | 5.71 | 4.2 | 100%* | 100%* |  |  |  | 2 μg/0.1% = 1.1% | 20 μg/1.0% = 49.7%* |  | 6
6 | Cc1cccc(NC(=O)Nc2ccc(-c3csc4ccnc(N)c34)cc2)c1 [V, 1-[4-(4-Amino-thieno[3,2-c]pyridin-3-yl)-phenyl]-3-m-tolyl-urea] |  | 1.57 ± 1.24 | 64.0% | 40.4% | 3.8^ nmole | 1.42 | 1.38* | 24.11 | 9.03 | 1.94 | 16.9% | 100%* |  |  |  |  |  |  | 
7 | Cc1cccc(NC(=O)Nc2ccc(-c3csc4c(-c5ccncc5)cnc(N)c34)cc2)c1 [VI, 1-[4-(4-Amino-7-pyridin-4-yl-thieno[3,2-c]pyridin-3-yl)-phenyl]-3-m-tolyl-urea] |  | 0.07 ± 0.069 | 106.5%* | 70.6%* |  |  |  | 13.31 | 6.01 | 3.86 | 35.7% | 88.4* % | 39.46 | 17.82 | 1.75 |  |  |  | 
